According to patent US20030022821A1, “Bioactive peptides” (priority 1998, published 2003):
Values after ≈ are worked out from the molar mass of the structure shown. Like-named read-outs stand apart in the source and are kept apart here. Ends that are not written are not given here. Peptide text beside a SMILES is read from it. * marks the point of attachment. Acm = CC(=O)NC*

Experiments:
[1] = tested on: Staphylococcus aureus ATCC 25923; assay type: cell-based
Method: (§1) The bacterial strains used were: Escherichia coli ATCC 25922 and Staphylococcus aureus ATCC 25923. All strains were stored at −70° C. The bacteria were grown in 2% Bacto Peptone water (Difco 1807-17-4). All tests were performed with bacteria in mid-logarithmic growth phase. Determination of the minimum inhibitory concentration (MIC) of the peptides for bacterial strains were performed in 1% Bacto Peptone water. A standard microdilution technique with an inoculum of 2×10^6 CFU/ml was used. All assays were performed in triplets. Since the peptides are positively charged and therefore could adhere to the plastic wells, we controlled the actual concentration of the peptides in the solution by HPLC. There was no difference between the concentration of the peptides before or after adding the solution to the plastic wells.

[2] = tested on: Escherichia coli ATCC 25922; assay type: cell-based
Method: as §1

Compound | MIC S. aureus ([1]; ATCC 25923) [µg/mL] | MIC E. coli ([2]; ATCC 25922) [µg/mL] | other results
CC[C@H](C)[C@H](NC(=O)[C@H](CCCCN)NC(=O)[C@H](Cc1c[nH]c2ccccc12)NC(=O)[C@H](CCC(N)=O)NC(=O)[C@H](Cc1c[nH]c2ccccc12)NC(=O)[C@H](CCC(N)=O)NC(=O)[C@H](CCCNC(=N)N)NC(=O)[C@H](CSCNC(C)=O)NC(=O)[C@H](CCCCN)NC(=O)[C@@H](N)CO)C(=O)N[C@@H](CCCNC(=N)N)C(=O)N[C@@H](CCCNC(=N)N)C(=O)N[C@H](C(=O)N[C@@H](CC(N)=O)C(=O)N1CCC[C@H]1C(=O)O)[C@@H](C)O [LFPW8] (H-SKC(Acm)RQWQWKIRRTNP-OH; N-terminus assumed) | – | – | MIC S. aureus ([1]; Table 4, unit assumed): > 1000 µg/mL; MIC E. coli ([2]; Table 4): 500 µg/mL (≈ 243 µM)
CC(=O)NCSC[C@H](NC(=O)[C@H](CCCCN)NC(=O)[C@@H](N)Cc1ccccc1)C(=O)N[C@@H](CCCNC(=N)N)C(=O)N[C@@H](CCCNC(=N)N)C(=O)N[C@@H](Cc1c[nH]c2ccccc12)C(=O)N[C@@H](CCC(N)=O)C(=O)N[C@@H](Cc1c[nH]c2ccccc12)C(=O)N[C@@H](CCCNC(=N)N)C(=O)N[C@@H](C)C(=O)N[C@@H](CCCCN)C(=O)N[C@@H](CCCCN)C(=O)N[C@@H](CC(C)C)C(=O)NCC(=O)N[C@@H](C)C(=O)O [LFB A10] (H-FKC(Acm)RRWQWRAKKLGA-OH) | >200 | 140 (≈ 69.8 µM) | –
CSCC[C@H](NC(=O)[C@H](CCCNC(=N)N)NC(=O)[C@H](Cc1c[nH]c2ccccc12)NC(=O)[C@H](CCC(N)=O)NC(=O)[C@H](Cc1c[nH]c2ccccc12)NC(=O)[C@H](CCCNC(=N)N)NC(=O)[C@H](CCCNC(=N)N)NC(=O)[C@H](CSCNC(C)=O)NC(=O)[C@H](CCCCN)NC(=O)[C@@H](N)Cc1ccccc1)C(=O)N[C@@H](C)C(=O)N[C@@H](CCCCN)C(=O)N[C@@H](CC(C)C)C(=O)NCC(=O)N[C@@H](C)C(=O)O [LFB A11] (H-FKC(Acm)RRWQWRMAKLGA-OH) | >200 | 70 (≈ 34.9 µM) | –
RRWQWRMKKLGA-OH [LFB 20-31] | – | – | MIC S. aureus ATCC 25923 ([1]; ATCC 25923): 200 µg/mL; MIC S. aureus ATCC 25923 ([1]; Table 1, value in brackets): 124 µM; MIC S. aureus ([1]; Table 11): 200 µg/mL; MIC E. coli ATCC 25922 ([2]; ATCC 25922): 100 µg/mL; MIC E. coli ATCC 25922 ([2]; Table 1, value in brackets): 62 µM; MIC E. coli ([2]; Table 11): 100 µg/mL
LFH Pmc: human lactoferricin with Pmc attached to the only available tryptophan | – | – | MIC S. aureus ([1]; Table 5, unit assumed): 50 µg/mL; MIC E. coli ([2]; Table 5): 25 µg/mL

The next lines start with results.

MIC S. aureus ([1]; ATCC 25923) [µg/mL] | MIC E. coli ([2]; ATCC 25922) [µg/mL] | Compound | other results
50 (≈ 23.9 µM) | 25 (≈ 11.9 µM) | CSCC[C@H](NC(=O)[C@H](CCCNC(=N)N)NC(=O)[C@H](Cc1c[nH]c2ccccc12)NC(=O)[C@H](CCC(N)=O)NC(=O)[C@H](Cc1c[nH]c2ccccc12)NC(=O)[C@H](CCCNC(=N)N)NC(=O)[C@H](CC(C)C)NC(=O)[C@H](CSCNC(C)=O)NC(=O)[C@H](CCCCN)NC(=O)[C@@H](N)CCCNC(=N)N)C(=O)N[C@@H](CCCNC(=N)N)C(=O)N[C@@H](CCCCN)C(=O)N[C@@H](Cc1ccc(O)cc1)C(=O)NCC(=O)NCC(=O)O [LFM R1, 9 W8 Y13] (H-RKC(Acm)LRWQWRMRKYGG-OH; N-terminus and C-terminus assumed) | –
>1000 | >1000 | CSCC[C@H](NC(=O)[C@H](C)NC(=O)[C@H](Cc1c[nH]c2ccccc12)NC(=O)[C@H](CCC(N)=O)NC(=O)[C@H](Cc1c[nH]c2ccccc12)NC(=O)[C@H](CCCNC(=N)N)NC(=O)[C@H](CC(C)C)NC(=O)[C@H](CSCNC(C)=O)NC(=O)[C@H](CCCCN)NC(=O)[C@@H](N)CCC(=O)O)C(=O)N[C@@H](CCCNC(=N)N)C(=O)N[C@@H](CCCCN)C(=O)N[C@@H](Cc1ccc(O)cc1)C(=O)NCC(=O)NCC(=O)O [LFM A9 W8 Y13] (H-EKC(Acm)LRWQWAMRKYGG-OH; N-terminus and C-terminus assumed) | –
2.5 | 5 | RRWYRWWR-NH2 [LFM 17-24 R1,2, 8 W3, 7Y4NH2] | –
